Measurements taken from patent US20120245029A1, “NOVEL PHOSPH(ON)ATE- AND SULF(ON)ATE-BASED PHOSPHATE MODIFIED NUCLEOSIDES USEFUL AS SUBSTRATES FOR POLYMERASES AND AS ANTIVIRAL AGENTS” (priority 2009, published 2012).

Legend:
Type in all cases: biochemical
HIV-1 RT [1] = molecular target: T1, HIV-1 RT (Human immunodeficiency virus type 1 group M subtype B, UniProt P04585); test: Gel-based single nucleotide incorporation assay by HIV-1 RT (primer-template P1T1)
T1 construct: HIV-1 Reverse Transcriptase serves, in the HIV-1 viral replication process, as catalyst; purchased Ambion

HIV-1 RT [2] = molecular target: T1, HIV-1 RT; test: Steady-state kinetics of single nucleotide incorporation by HIV-1 RT
Protocol: The efficiency of incorporation by HIV-1 RT of 3-phosphono-L-Ala-dAMP (3) was investigated by determination of the kinetic parameters Km and Vmax. The steady-state kinetics assay was carried out as follows. The reaction was started by adding HIV-1 RT to P1-T1 complex, buffer, 3-phosphono-L-Ala-dAMP (3) and dATP. The final mixture (20 μL) contained 0.025 U/μL HIV-1 RT, buffer, 125 nM primer-template complex, and various concentrations 3-phosphono-L-Ala-dAMP and dATP. The range of concentrations for phosphoamidates was optimized according to a Km value for the incorporation of an individual nucleotide. In the case of HIV-1 RT, reaction mixtures containing the enzyme in concentration (0.025 U/μL) to attain 5-25% conversion and appropriate substrate concentration (0.5-100 μM used for 3-phosphono-L-Ala-dAMP (3) and 0.1-10 μM used for dATP) were incubated at 37° C. and run for 8-10 different time intervals (2-20 minutes). The incorporation velocities were calculated based on the percentage of single-nucleotide extension product (P+1 band). The kinetic parameters (Vmax and Km) were determined by plotting V (nM/min) versus substrate concentration (μM) and fitting the data point to a nonlinear Michaelis-Menten regression using GraphPad Prism software.

HIV-1 RT [3] = molecular target: T1, HIV-1 RT; test: Gel-based single nucleotide incorporation assay by HIV-1 RT (primer-template P1T1); conditions: for % of P + 1 / % of P + 2: P1T1 125 nM
Protocol: (§1) DNA polymerase reactions: end-labeled primer was annealed to its template by combining primer and template in a molar ratio of 1:2 and heating the mixture to 70° C. for 10 minutes followed by slow cooling to room temperature over a period of 1.5 hour. For the incorporation of a modified nucleoside, a series of 20 μL-batch reactions was performed with the enzyme HIV-1 RT (Ambion, 10 U/μL stock soln, specific activity 8.095 Wring, concentration 1.2 mg/mL). The final mixture contained 125 nM primer template complex, RT buffer (250 mM Tris.HCl, 250 mM KCl, 50 mM MgCl2, 2.5 mM spermidine, 50 mM dithiothreitol (DTT); pH 8.3), 0.025 U/μL HIV-1 RT, and different concentrations of the phosphoramidate to be tested (1 mM, 500 μM, 200 μM and 100 μM).
(§2) Electrophoresis: all polymerase reaction aliquots (2.5 μL) were quenched by the addition of 10 μL of loading buffer (90% formamide, 0.05% bromophenol blue, 0.05% xylene cyanol and 50 mM ethylenediaminetetraacetic acid (EDTA)). Samples were heated at 85° C. for 5 minutes prior to analysis by electrophoresis for 2.5 hours at 2000 V on a 30 cm×40 cm×0.4 mm 20% (19:1 mono:bis) denaturing gel in the presence of a 100 mM Tris-borate, 2.5 mM EDTA buffer; pH 8.3. Products were visualized by phosphorimaging. The amount of radioactivity in the bands corresponding to the products of enzymatic reactions was determined by using the imaging device Cyclone@ and the Optiquant image analysis software (Perkin Elmer).
Here, the ability of phosphoramidate analogues as substrate for HIV-1 RT was investigated by the gel-based single nucleotide incorporation assay. The natural nucleoside triphosphate (dATP) was used as reference.
The ability of HIV-1 reverse transcriptase to incorporate phosphoramidate analogues 2-6 was analysed by gel-based single-nucleotide-incorporation assays using the primer-template complex P1T1.

HIV-1 RT [4] = molecular target: T1, HIV-1 RT; test: Elongation of primer P1 directed by template T2 by HIV-1 RT; conditions: P1T2; for P+7 product: 60 min
Protocol: as §1, §2
In order to further investigate the potentiality of the leaving groups of this invention, L-Cys-dAMP (2) and 3-phosphono-L-Ala-dAMP (3) were tested in the template dependent incorporation of more than one phosphoramidate nucleotides by HIV-1 RT (FIG. 4). For this purpose, Primer P1 and template T2 containing an overhang of seven thymidine residues and four nucleobases (GGAC) at the 3′-end were used.
In order to investigate the strand elongation capacity of compound 2, a template dependent incorporation of more than one nucleotide experiment was carried out. In this experiment HIV-1 RT and P1T2 duplex, where seven thymidine bases overhang of the template is flanked by four non-thymidine units at the 3′-end were used. A range of concentration of the building block was incubated with the primer-template complex and 0.025 U/μL of enzyme at the appropriate temperature, samples were quenched after 15, 30, 60, 90 and 120 minutes respectively and analyzed by 20% polyacrylamide gel electrophoresis.

Taq DNA polymerase = Taq DNA polymerase (Thermus aquaticus, UniProt P19821); test: Single nucleotide incorporation using Taq DNA polymerase; conditions: P1T1
Protocol: 3-phosphono-L-Ala-dAMP (3) was tested as a substrate for Taq DNA polymerase (data in FIG. 5).

[5] = P1T1 125 nM, HIV-1 RT 0.025 U/μL, 37° C.

Taq DNA polymerase, sequence (P19821 whole entry): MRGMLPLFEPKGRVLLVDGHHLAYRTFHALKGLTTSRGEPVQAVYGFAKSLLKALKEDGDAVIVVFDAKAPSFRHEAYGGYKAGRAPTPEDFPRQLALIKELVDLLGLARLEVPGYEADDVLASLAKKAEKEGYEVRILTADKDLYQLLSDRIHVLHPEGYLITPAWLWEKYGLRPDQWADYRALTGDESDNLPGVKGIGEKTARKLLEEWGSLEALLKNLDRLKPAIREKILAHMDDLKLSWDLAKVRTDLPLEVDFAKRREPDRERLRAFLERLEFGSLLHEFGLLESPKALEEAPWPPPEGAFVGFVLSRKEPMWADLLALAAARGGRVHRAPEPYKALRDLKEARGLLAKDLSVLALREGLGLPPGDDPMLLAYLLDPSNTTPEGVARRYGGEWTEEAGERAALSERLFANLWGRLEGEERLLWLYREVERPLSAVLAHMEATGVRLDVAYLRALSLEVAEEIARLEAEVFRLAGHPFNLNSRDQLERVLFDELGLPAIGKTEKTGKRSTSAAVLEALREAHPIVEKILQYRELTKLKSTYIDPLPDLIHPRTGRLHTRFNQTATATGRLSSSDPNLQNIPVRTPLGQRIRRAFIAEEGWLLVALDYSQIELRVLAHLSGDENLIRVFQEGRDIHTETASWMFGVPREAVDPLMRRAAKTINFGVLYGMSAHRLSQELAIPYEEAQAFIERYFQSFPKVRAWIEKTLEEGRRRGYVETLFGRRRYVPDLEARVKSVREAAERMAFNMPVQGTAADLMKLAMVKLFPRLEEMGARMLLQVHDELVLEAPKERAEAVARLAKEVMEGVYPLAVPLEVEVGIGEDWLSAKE

Nc1ncnc2c1ncn2[C@H]1C[C@H](O)[C@@H](COP(=O)(O)N[C@@H](CP(=O)(O)O)C(=O)O)O1 [Compound 3, 2′-deoxyadenosine-5′-(3-phosphono-L-alanine) phosphoramidate]
Incorporation (conversion to a P+1 strand) (HIV-1 RT [1]; 10 μM substrate): 27.1%
% of P + 1 (HIV-1 RT [1]; 50 μM substrate, 10 min, P1T1 125 nM): 84.5%
substrate quality for HIV-1 RT (in words) (HIV-1 RT [1]; among phosphoramidate analogues 1-5): best incorporation efficiency
Km fold higher than the natural substrate dATP (HIV-1 RT [2]): 15 fold
Vmax fold lower than dATP (HIV-1 RT [2]): 1.7 fold
Km (HIV-1 RT [2]; [5]): 14.3 ± 3.78 µM
Vmax (HIV-1 RT [2]; [5]): 19.21 ± 1.58 nM/min
% of P + 1 (HIV-1 RT [3]; 50 μM substrate, 20 min): 89.9%
% of P + 1 (HIV-1 RT [3]; 50 μM substrate, 30 min): 92.6%
% of P + 1 (HIV-1 RT [3]; 50 μM substrate, 60 min): 94.6%
% of P + 1 (HIV-1 RT [3]; 50 μM substrate, 120 min): 95.9%
% of P + 1 (HIV-1 RT [3]; 100 μM substrate, 10 min): 94.8%
% of P + 1 (HIV-1 RT [3]; 100 μM substrate, 20 min): 97.7%
% of P + 1 (HIV-1 RT [3]; 100 μM substrate, 30 min): 97.6%
% of P + 1 (HIV-1 RT [3]; 100 μM substrate, 60 min): 97.9%
% of P + 1 (HIV-1 RT [3]; 100 μM substrate, 120 min): 97.5%
% of P + 1 (HIV-1 RT [3]; 200 μM substrate, 10 min): 91.7%
% of P + 2 (HIV-1 RT [3]; 200 μM substrate, 10 min): 3.0%
% of P + 1 (HIV-1 RT [3]; 200 μM substrate, 20 min): 93.8%
% of P + 2 (HIV-1 RT [3]; 200 μM substrate, 20 min): 3.4%
% of P + 1 (HIV-1 RT [3]; 200 μM substrate, 30 min): 93.7%
% of P + 2 (HIV-1 RT [3]; 200 μM substrate, 30 min): 3.6%
% of P + 1 (HIV-1 RT [3]; 200 μM substrate, 60 min): 93.0%
% of P + 2 (HIV-1 RT [3]; 200 μM substrate, 60 min): 4.3%
% of P + 1 (HIV-1 RT [3]; 200 μM substrate, 120 min): 94.2%
% of P + 2 (HIV-1 RT [3]; 200 μM substrate, 120 min): 3.6%
% of P + 1 (HIV-1 RT [3]; 500 μM substrate, 10 min): 88.8%
% of P + 2 (HIV-1 RT [3]; 500 μM substrate, 10 min): 7.5%
% of P + 1 (HIV-1 RT [3]; 500 μM substrate, 20 min): 88.4%
% of P + 2 (HIV-1 RT [3]; 500 μM substrate, 20 min): 9.6%
% of P + 1 (HIV-1 RT [3]; 500 μM substrate, 30 min): 86.9%
% of P + 2 (HIV-1 RT [3]; 500 μM substrate, 30 min): 11.1%
% of P + 1 (HIV-1 RT [3]; 500 μM substrate, 60 min): 87.0%
% of P + 2 (HIV-1 RT [3]; 500 μM substrate, 60 min): 11.2%
% of P + 1 (HIV-1 RT [3]; 500 μM substrate, 120 min): 87.0%
% of P + 2 (HIV-1 RT [3]; 500 μM substrate, 120 min): 11.5%
% of P + 1 (HIV-1 RT [3]; 1 mM substrate, 10 min): 80.6%
% of P + 2 (HIV-1 RT [3]; 1 mM substrate, 10 min): 16.7%
% of P + 1 (HIV-1 RT [3]; 1 mM substrate, 20 min): 73.7%
% of P + 2 (HIV-1 RT [3]; 1 mM substrate, 20 min): 23.7%
% of P + 1 (HIV-1 RT [3]; 1 mM substrate, 30 min): 75.9%
% of P + 2 (HIV-1 RT [3]; 1 mM substrate, 30 min): 22.1%
% of P + 1 (HIV-1 RT [3]; 1 mM substrate, 60 min): 76.3%
% of P + 2 (HIV-1 RT [3]; 1 mM substrate, 60 min): 21.9%
% of P + 1 (HIV-1 RT [3]; 1 mM substrate, 120 min): 76.4%
% of P + 2 (HIV-1 RT [3]; 1 mM substrate, 120 min): 21.7%
fold more efficient incorporation compared with L-Cys-dAMP (2) (HIV-1 RT [3]; HIV-1 RT single nucleotide incorporation): 10.7 fold
primer extension products (in words) (HIV-1 RT [4]; 50 μM and 100 μM substrate): only extended a primer with two and three adenine nucleobases
P+7 product (HIV-1 RT [4]; 200 μM substrate): 7.1%
P+7 product (HIV-1 RT [4]; 500 μM substrate): 15.9%
P+7 product (HIV-1 RT [4]; 1 mM substrate): 23.8%
incorporation activity relative to natural dATP (HIV-1 RT [4]): less active than the natural dATP
misincorporation (P+8) (HIV-1 RT [4]): did not result in any misincorporation
incorporation and primer extension by Taq DNA polymerase (in words) (Taq DNA polymerase): less active than HIV-1 RT
